Converted amounts (≈) assume the structure as drawn. Counter-ions that a name gives are not always drawn. Like-named read-outs stand apart in the source and are kept apart here.
Columns and labels:
Proteus mirabilis MGH-1 = assay: In vitro tube dilution test (MIC), Proteus mirabilis MGH-1; type: cell-based
Protocol: (§1) Nalidixic acid, the parent acid, and its 1,2-ethanediamine (1:1) salt were tested in vitro against ten screening organisms and they were also tested against the standard E. coli (Vogel) systemic infection in mice, the latter in vivo study being carried out using three different routes of administration: oral, subcutaneous and intravenous. The materials and methods used in the comparative antibacterial tests are given in the following paragraphs.
(§2) The parent nalidixic acid was solublized by adding 1.0 ml. of 1 N NaOH to the crystalline acid and water was added to a concentration of 1000 mcg./ml. for the in vitro study or saline to a concentration of 2.5 or 5.0 mg./ml. for the in vivo study. A stock solution of nalidixic acid 1,2-ethanediamine (1:1) salt was prepared from the 1:2 salt according to Example 5 above (refer to Solution 5B); in saline this solution has a concentration equivalent of the nalidixic acid of 47.6 mg./ml. for in vivo studies. A concentration equivalent of the acid of 1000 mcg./ml. for the in vitro studies was obtained by dilution of the stock solution. […]
(§3) The compounds were tested for antimicrobial activity by a single-row tube dilution method. […] Minimal inhibitory concentrations (lowest drug concentrations showing no visible growth, designated MIC) were read after eighteen-twenty hours incubation at 37° C. The molds were read after five days incubation at 25° C.

[1] = tested on: Staphylococcus aureus (Smith); assay: In vitro tube dilution test (MIC), Staphylococcus aureus (Smith); type: cell-based; conditions: 18-20 hours at 37° C.
Protocol: as §1, §2, §3

Aspergillus niger 16404 = assay: In vitro tube dilution test (MIC), Aspergillus niger 16404; type: cell-based; conditions: 120 h, molds read after five days at 25° C., read-out: Minimal Inhibitory Concentration
Protocol: as §1, §2, §3

[2] = tested on: Klebsiella pneumoniae 39645; assay: In vitro tube dilution test (MIC), Klebsiella pneumoniae 39645; type: cell-based; conditions: 18-20 hours at 37° C.
Protocol: as §1, §2, §3

[3] = tested on: Streptococcus pyogenes C203; assay: In vitro tube dilution test (MIC), Streptococcus pyogenes C203; type: cell-based; conditions: 18-20 hours at 37° C.
Protocol: as §1, §2, §3

Escherichia coli (Vogel) [4] = assay: Mouse protection test, systemic Escherichia coli (Vogel) infection in mice; type: in vivo, Swiss Webster, female; conditions: for ED50: Escherichia coli, 168 h, read-out: ED50 (the dose protecting 50% of the mice); for ED50 / ED50 (the dose protecting 50% of the mice): dosed 30 minutes after infection, 7 days; for ED50 (the dose protecting 50% of the mice): 10080 min
Protocol: as §1
The parent nalidixic acid was solublized by adding 1.0 ml. of 1 N NaOH to the crystalline acid and water was added to a concentration of 1000 mcg./ml. for the in vitro study or saline to a concentration of 2.5 or 5.0 mg./ml. for the in vivo study. A stock solution of nalidixic acid 1,2-ethanediamine (1:1) salt was prepared from the 1:2 salt according to Example 5 above (refer to Solution 5B); in saline this solution has a concentration equivalent of the nalidixic acid of 47.6 mg./ml. for in vivo studies. A concentration equivalent of the acid of 1000 mcg./ml. for the in vitro studies was obtained by dilution of the stock solution.
Culture for In Vivo Study Escherichia coii (Vogel)
Mice White, Swiss Webster, female, […].
The E. coli culture was grown in Brain Heart Infusion broth at 37° C. for sixteen hours after which 0.1 ml. was removed and inoculated into 10 ml. of Brain Heart Infusion broth and incubated for five hours. […] All mice to be infected were inoculated intraperitoneally with 0.5 ml. of the inoculum.
After inoculation of the organism, the mice were divided into groups of ten. Medication was given to one group of mice at each dose level of each of the […] drugs by each of the three routes of administration. Two groups (twenty mice) were used as infection controls. The drugs were administered thirty minutes after the mice were infected. The dose of drug for i.v. injection was contained in 0.2 ml. Those for oral or subcutaneous administration were contained in 0.5 ml. The mice were examined and deaths were recorded for seven days after inoculation. The ED50 's (the dose protecting 50% of the mice) were calculated using a modified Reed and Muench method.

Proteus vulgaris 9920 = assay: In vitro tube dilution test (MIC), Proteus vulgaris 9920; type: cell-based; conditions: 18-20 hours at 37° C.
Protocol: as §1, §2, §3

Candida albicans 10231 = assay: In vitro tube dilution test (MIC), Candida albicans 10231; type: cell-based
Protocol: as §1, §2, §3

[5] = tested on: Trichophyton mentagrophytes 9129; assay: In vitro tube dilution test (MIC), Trichophyton mentagrophytes 9129; type: cell-based; conditions: 120 h, molds read after five days at 25° C., read-out: Minimal Inhibitory Concentration
Protocol: as §1, §2, §3

Escherichia coli (Vogel) [6] = assay: In vitro tube dilution test (MIC), Escherichia coli (Vogel); type: cell-based; conditions: 18-20 hours at 37° C., read-out: Minimal Inhibitory Concentration
Protocol: as §1, §2, §3

[7] = tested on: Pseudomonas aeruginosa MGH-2; assay: In vitro tube dilution test (MIC), Pseudomonas aeruginosa MGH-2; type: cell-based; conditions: 18-20 hours at 37° C.
Protocol: as §1, §2, §3

ten screening organisms = assay: In vitro antibacterial tests against ten screening organisms (overall); type: cell-based; conditions: in words
Protocol: as §1, §2, §3

[8] = read-out: Minimal Inhibitory Concentration

For CCn1cc(C(=O)O)c(=O)c2ccc(C)nc21 [nalidixic acid, 1-ethyl-1,4-dihydro-7-methyl-4-oxo-1,8-naphthyridine-3-carboxylic acid], the MIC (Proteus mirabilis MGH-1; MGH1, 18-20 hours at 37° C., read-out: Minimal Inhibitory Concentration) was 15.6 µg/mL (≈ 67.2 µM), the MIC [1, 8] was 31.3 µg/mL (≈ 135 µM) and the MIC (Aspergillus niger 16404) was 500 µg/mL (≈ 2150 µM). It also gave an MIC [2, 8] of 31.3 µg/mL (≈ 135 µM), an MIC [3, 8] of 250 µg/mL (≈ 1080 µM) and an ED50 (Escherichia coli (Vogel) [4]; iv, Intravenous) of 17.6 mg/kg. For the same compound, the ED50 (Escherichia coli (Vogel) [4]; po, Oral) was 16.5 mg/kg, the ED50 (Escherichia coli (Vogel) [4]; sc, Subcutaneous) was 14 mg/kg and the MIC (Proteus vulgaris 9920; [8]) was 1 µg/mL (≈ 4.31 µM). For the same compound, the MIC (Candida albicans 10231; [8]) was 500 µg/mL (≈ 2150 µM), the MIC [5] was 500 µg/mL (≈ 2150 µM) and the MIC (Escherichia coli (Vogel) [6]) was 3.9 µg/mL (≈ 16.8 µM). For the same compound, the MIC ([7]; Pseudomonas aeruginosa, MGH2, Pseudomonas aeruginosa MGH-2, read-out: Minimal Inhibitory Concentration) was 125 µg/mL (≈ 538 µM).
For CCn1cc(C(=O)O)c(=O)c2ccc(C)nc21 [1,2-ED Salt, 1,2-ethanediamine (1:1) salt of nalidixic acid], the “Minimal Inhibitory Concentration” value (Proteus mirabilis MGH-1; 18-20 hours at 37° C.) was 15.6 µg/mL, the “antibacterial activity in standard in vitro tests vs. parent nalidixic acid” value (ten screening organisms) was “as active antibacterially as the corresponding parent nalidixic acid” and the “in vitro MIC's compared with MIC's of nalidixic acid” value (ten screening organisms; nine of the ten microorganisms) was “identical to the MIC's of nalidixic acid against nine of the ten microorganisms examined”. For the same compound, the “Minimal Inhibitory Concentration” value [1] was 31.3 µg/mL, the “Minimal Inhibitory Concentration” value [2] was 31.3 µg/mL and the “Minimal Inhibitory Concentration” value [3] was 250 µg/mL. For the same compound, the “ED50 (the dose protecting 50% of the mice)” value (Escherichia coli (Vogel) [4]; Oral) was 18.9 mg./kg./dose, the “ED50 (the dose protecting 50% of the mice)” value (Escherichia coli (Vogel) [4]; Subcutaneous) was 17.6 mg./kg./dose and the “ED50 's compared with nalidixic acid in the mouse protection test” value (Escherichia coli (Vogel) [4]; in words) was “no significant differences”. The “antibacterial activity against in vivo bacterial infections in mice vs. parent nalidixic acid” value (Escherichia coli (Vogel) [4]; in words) was “as active antibacterially as the corresponding parent nalidixic acid”, the “Minimal Inhibitory Concentration” value (Proteus vulgaris 9920) was 1.0 µg/mL and the “Minimal Inhibitory Concentration” value (Candida albicans 10231) was 500 µg/mL. For the same compound, the “Minimal Inhibitory Concentration” value ([7]; Pseudomonas aeruginosa MGH-2) was 62.5 µg/mL.

Reference: patent US4207418A, “1,2-Ethanediamine salts of nalidixic acid” (Sterling Drug Inc., priority 1978, dated 1980)
